Test results published in patent publication US20200390754A1, “METHODS OF ADMINISTERING TOLPERISONE” (Neurana Pharmaceuticals, Inc., priority 2017, published 2020).

Assays:
[1] = test system: male and female healthy volunteers; assay: Karolinska Sleepiness Scale (KSS) test; type: in vivo, human; conditions: for Karolinska Sleepiness Scale (KSS): Tolperisone 450 mg, Cyclobenzaprine 30 mg, TID
Experimental: (§1) Subjects were dosed on the morning of Day 1.
The Karolinska Sleepiness Scale (KSS) was used to assess subjective level of sleepiness. This is a subject self-report measure of situational sleepiness and provides an assessment of alertness/sleepiness at a particular point in time. […] Subjects indicated their level of alertness versus sleepiness according to the following scale:
The KSS assessment was performed immediately before and after the simulated driving test Subjects self-reported their KSS assessments and the scores were recorded in the case report form.

[2] = test system: male and female healthy volunteers; assay: Digit Symbol Substitution Test (CogScreen Symbol Digit Coding); type: in vivo, human; conditions: Tolperisone 450 mg, Cyclobenzaprine 30 mg, TID
Experimental: as §1
This test is used to measure attention, visual scanning, working memory, and speed of information processing. SDC is a computer analogue of the conventional symbol-substitution task found in the WAIS-R Digit Symbol subtest and the Symbol Digit Modalities Test. Details of the use of the SDC are provided in the CogScreen® Examiner Manual, CogScreen LLC, 2016. CogScreen SDC endpoints include: • Number of correct responses; • Response Accuracy; and • Standard deviation of reaction time.

[3] = test system: male and female healthy volunteers; assay: Safety: treatment emergent adverse events; type: in vivo, human; conditions: for Treatment Emergent Adverse Events: Cardiac / Treatment Emergent Adverse Events: Gastrointestinal Disorders / Treatment Emergent Adverse Events: General: Sluggishness / Treatment Emergent Adverse Events: Nervous System Disorders, Attention / Treatment Emergent Adverse Events: Nervous System Disorders, Dizziness / Treatment Emergent Adverse Events: Nervous System Disorders, Headache / Treatment Emergent Adverse Events: Nervous System Disorders, Lethargy / Treatment Emergent Adverse Events: Nervous System Disorders, Somnolence / Treatment Emergent Adverse Events: Psychiatric (Insomnia) / Treatment Emergent Adverse Events: Respiratory / Treatment Emergent Adverse Events: Skin: Tolperisone 450 mg, Cyclobenzaprine 30 mg; for number of Treatment Emergent Adverse Events (TEAEs) reported: n per treatment, 3 days of each treatment
Experimental: as §1
Safety analysis was based on the safety population. Safety measures were summarized using descriptive statistics and listed for each subject. MedDRA thesaurus was used to map adverse events verbatim to preferred terms and body systems. WHOdrug thesaurus (Sep. 1, 2016) was used to map prior medication and concomitant medication verbatim to preferred terms and ATC Class.
The Principal Investigator was responsible for the monitoring of subjects' safety and reporting of all adverse events (AEs) and serious adverse events (SAEs). The study personnel reviewed subject-volunteered information related to subjective complaints, and reviewed all laboratory findings and queried the subject specifically for visits requiring hospitalization, procedures, laboratory follow-up, or unscheduled visits to see their physician. Each trial subject was questioned about AEs during treatment with study drug. All AEs were documented in the subject's source documents as well as on the appropriate case report form (CRF). The Investigator assessed and recorded any AE in detail on the AE CRF pages including a description of the event, the date of onset, severity, time course, duration and outcome, relationship of the AE to study drug, and an alternate etiology for events not considered “probably” related to study drug and any actions taken.

[4] = test system: male and female healthy volunteers; assay: Country Vigilance-Divided Attention (CVDA) driving scenario on the CRCDS-MiniSim driving simulator; conditions: for Lane Exceedance (extent of driving outside of lanes) / Total Collisions: Tolperisone 450 mg, Cyclobenzaprine 30 mg, TID; for SDLP in driving simulation compared to placebo (words, FIG. 1): primary endpoint; for Reaction time on the divided attention test: Day 1, compared to placebo (placebo or cyclobenzaprine)
Experimental: Methodology: This was a randomized, placebo-controlled, multiple-dose 3-way cross-over study of the safety and cognitive effects of multiple doses of 150 mg tolperisone film-coated tablets (prepared according to methods described and referred to herein) administered three times daily (TID) in 31 male and female healthy volunteers. […] Subjects received 3 days of each treatment over three treatment periods. Subject participation was approximately 3 weeks as outpatients with 3 days each week as overnight clinic participants. Subjects were screened within 28 days prior to Treatment Period 1 (Visit 2) for eligibility for participation in the study. Subjects who met all inclusion/exclusion criteria were admitted to the clinic on Day 1 to be evaluated for continued eligibility. Subjects performed a practice trial with the driving simulator and the cognitive function test. Subjects were dosed on the morning of Day 1. Approximately one hour after the […] dose on Day 1, subjects were administered the cognitive test, followed by the driving simulator examination. On the morning of Day 2, prior to dosing, subjects were re-administered the cognitive test and driving examination to assess residual next day effects. Subjects repeated cognitive testing and the driving examination on the morning of Day 3, after administration of the AM study medication, to evaluate the cumulative effects of 3 days of dosing. Subjects were discharged on Day 3 with instructions to return to the clinic on […] to repeat the above procedure with the second and third treatments. A follow-up phone call was conducted 1 week (±3 days) following discharge from the clinic on Day 17 to assess for continued safety. The total duration of study participation was approximately 4 weeks (range 4-8 weeks), including Screening and Follow-up.
The pharmacodynamic measures included simulated driving performance as measured by SDLP using the Cognitive Research Corporation Driving Simulator-MiniSim (CRCDS-MiniSim), the Karolinska Sleepiness Scale, the CogScreen Symbol Digit Coding (SDC) test, a self-perceived safety to drive question, the Visual Analog Scale (VAS) to assess subject's motivation and self-appraisal of their driving performance, and an assessment of the relationship between single-dose plasma drug levels and driving performance. Blood samples for the determination of plasma tolperisone concentrations were drawn prior to each AM dosing on Days 1-3, 8-10, 15-17 and post-driving test (15-30 minutes after the drive) on Days 1, 8, and 15. Blood samples collected post-driving test on Days 3, 10, and 17 were drawn between 1.5 and 2 hours after the start of the drive (approximately 10:30 AM to 11:00 AM). Safety was assessed by the monitoring and recording of adverse events, vital sign measurements, clinical laboratory abnormalities, electrocardiograms (ECGs), pregnancy tests, and physical examinations.
The primary endpoint, SDLP, was analyzed using a mixed-model, repeated measures with fixed effects for sequence, period, and treatment, with repeated observations for subjects. An unstructured covariance structure and Kenward-Roger degrees of freedom was used. […] In addition, pair-wise within subject differences in SDLP greater than 4.4 cm in absolute value (equal to the previously found difference between placebo and 0.05% Blood Alcohol Content (BAC) for the CRCDS) were compared using McNemar's test. Pair-wise within subject differences in SDLP were also tested for symmetry about […] using the maximally selected McNemar test. P-values for significance testing of period and sequence effects are also provided. Pair-wise comparisons (hypothesis tests) of differences in least squares means, and 95% confidence intervals on differences will be provided for:
A 62.1 mile (100 km), monotonous, two-lane highway driving task that includes a secondary visual vigilance task (DA).

For `CN(C)CCC=C1c2ccccc2C=Cc2ccccc21` [Cyclobenzaprine, cyclobenzaprine], the “KSS subjective sleepiness” value ([1]; Day 1) was “significantly more subjective sleepiness”, the “Karolinska Sleepiness Scale (KSS)” value ([1]; Day 1 (at Tmax)) was 5.5 and the “KSS subjective sleepiness” value ([1]; Day 2 or Day 3) was “did not report feeling more sleepy”. The “Karolinska Sleepiness Scale (KSS)” value ([1]; Next Day Residual) was 4.1, the “Karolinska Sleepiness Scale (KSS)” value ([1]; Steady State) was 3.8 and the “Symbol Digit Coding (SDC) Cognitive Research Version” value (“Symbol Digit Coding” for short) ([2]; Day 1 (at Tmax)) was 66.4. The “Symbol Digit Coding” value ([2]; Next Day Residual) was 66.7, the “Symbol Digit Coding” value ([2]; Steady State) was 67.4 and the “Treatment Emergent Adverse Events: Cardiac” value [3] was 1. For the same compound, the “Treatment Emergent Adverse Events: Gastrointestinal Disorders” value [3] was 4, the “Treatment Emergent Adverse Events: General: Sluggishness” value [3] was 1 and the “Treatment Emergent Adverse Events: Nervous System Disorders, Attention” value [3] was 0. The “Treatment Emergent Adverse Events: Nervous System Disorders, Dizziness” value [3] was 3, the “Treatment Emergent Adverse Events: Nervous System Disorders, Headache” value [3] was 0 and the “Treatment Emergent Adverse Events: Nervous System Disorders, Lethargy” value [3] was 1. The “Treatment Emergent Adverse Events: Nervous System Disorders, Somnolence” value [3] was 10, the “Treatment Emergent Adverse Events: Psychiatric (Insomnia)” value [3] was 1 and the “Treatment Emergent Adverse Events: Respiratory” value [3] was 0. The “Treatment Emergent Adverse Events: Skin” value [3] was 0, the “severe AE” value ([3]; in vivo) was “one severe AE of dizziness” and the “number of Treatment Emergent Adverse Events (TEAEs) reported” value [3] was 21. The “Lane Exceedance Maximum and Duration of Exceedance compared to placebo” value ([4]; Cyc: Days 1 and 2, Tol: any time-point) was “significantly worse”, the “Lane Exceedance (extent of driving outside of lanes)” value ([4]; Day 1 (at Tmax)) was 3.6 and the “Total Collisions” value ([4]; Day 1 (at Tmax)) was 1.6. For the same compound, the “Speedings Ratio compared to placebo” value ([4]; Day 2 and 3) was “no significant effect”, the “Lane Exceedance (extent of driving outside of lanes)” value ([4]; Next Day Residual) was 3.2 and the “Total Collisions” value ([4]; Next Day Residual) was 0.4. For the same compound, the “Lane Exceedance (extent of driving outside of lanes)” value ([4]; Steady State) was 2.9, the “Total Collisions” value ([4]; Steady State) was 0.1 and the “Average speed compared to placebo” value ([4]; in vivo) was “did not differ significantly”. The “Divided attention: number of Commission Errors compared to placebo” value ([4]; in vivo) was “non-significant”, the “Divided attention: number of Correct Responses compared to placebo” value ([4]; in vivo) was “no significant effect” and the “Divided attention: number of Omission Errors” value ([4]; in vivo) was “no increase”. The “Total Collisions compared to placebo” value ([4]; in vivo) was “no significant increase” and the “SDLP in driving simulation compared to placebo (words, FIG. 1)” value [4] was “significantly impaired effect”.
In the case of `Cc1ccc(C(=O)C(C)CN2CCCCC2)cc1` (stereo not drawn) [Tolperisone, tolperisone], the “Karolinska Sleepiness Scale (KSS)” value ([1]; Day 1 (at Tmax)) was 3.5, the “Karolinska Sleepiness Scale (KSS)” value ([1]; Next Day Residual) was 4.0 and the “Karolinska Sleepiness Scale (KSS)” value ([1]; Steady State) was 3.1. The “KSS self-reported sleepiness” value ([1]; any time-point) was “no significant increase”, the “Symbol Digit Coding” value ([2]; Day 1 (at Tmax)) was 66.6 and the “Symbol Digit Coding” value ([2]; Next Day Residual) was 69.3. For the same compound, the “Symbol Digit Coding” value ([2]; Steady State) was 70.1, the “Treatment Emergent Adverse Events: Cardiac” value [3] was 0 and the “Treatment Emergent Adverse Events: Gastrointestinal Disorders” value [3] was 1. The “Treatment Emergent Adverse Events: General: Sluggishness” value [3] was 0, the “Treatment Emergent Adverse Events: Nervous System Disorders, Attention” value [3] was 1 and the “Treatment Emergent Adverse Events: Nervous System Disorders, Dizziness” value [3] was 1. The “Treatment Emergent Adverse Events: Nervous System Disorders, Headache” value [3] was 1, the “Treatment Emergent Adverse Events: Nervous System Disorders, Lethargy” value [3] was 0 and the “Treatment Emergent Adverse Events: Nervous System Disorders, Somnolence” value [3] was 5. The “Treatment Emergent Adverse Events: Psychiatric (Insomnia)” value [3] was 0, the “Treatment Emergent Adverse Events: Respiratory” value [3] was 1 and the “Treatment Emergent Adverse Events: Skin” value [3] was 0. For the same compound, the “discontinuation due to AE” value ([3]; following the first day of dosing) was “one subject due to a moderate AE of a Crohn's Disease flare up”, the “number of Treatment Emergent Adverse Events (TEAEs) reported” value [3] was 15 and the “Reaction time on the divided attention test” value [4] was “statistically significant improvement”. The “Reaction time on the divided attention test” value ([4]; listed as Tol) was “significantly faster”, the “Average speed compared to placebo” value ([4]; in vivo) was “did not differ significantly” and the “Divided attention: number of Commission Errors compared to placebo” value ([4]; in vivo) was “non-significant”. The “Divided attention: number of Correct Responses compared to placebo” value ([4]; in vivo) was “no significant effect”, the “Divided attention: number of Omission Errors” value ([4]; in vivo) was “no increase” and the “Excessive Ay compared to placebo” value ([4]; in vivo) was “no significant increase”. For the same compound, the “Lane Exceedance Maximum and Duration of Exceedance compared to placebo” value ([4]; in vivo) was “not seen”, the “Speedings Count compared to placebo” value ([4]; in vivo) was “not significantly impacted” and the “Speedings Ratio compared to placebo” value ([4]; in vivo) was “no significant effect”. For the same compound, the “Total Collisions compared to placebo” value ([4]; in vivo) was “no significant increase”, the “hangover effect the morning following nighttime dosing” value ([4]; in vivo) was “does not produce a hangover effect” and the “majority of secondary driving endpoint measures compared to placebo” value ([4]; in vivo) was “no statistically significant difference”. The “SDLP in driving simulation compared to placebo (words, FIG. 1)” value [4] was “equivalent results”.
